{"source": "patent US12433846B2", "about": "“Drug delivery system for treatment of cancer” (SINTEF TTO AS, priority 2019, dated 2025)", "key": {"[1]": {"tested_on": "PMCA-1 (peritoneal metastases from colorectal cancer)", "assay": "In vivo treatment effect in orthotopic PMCA-1 peritoneal carcinomatosis model", "conditions": "PMCA-1, 15 mg/kg"}, "[2]": {"tested_on": "PMCA-3 (pseudomyxoma peritonei)", "assay": "In vivo treatment effect in orthotopic PMCA-3 peritoneal carcinomatosis model", "conditions": "PMCA-3, 15 mg/kg"}}, "note": "Where “and” joins values, the source holds several entries; their conditions need not be identical. Equal values may be shown once.", "data": [{"smiles": "CO[C@H]1C(=O)[C@]2(C)[C@@H](OC)C[C@H]3OC[C@@]3(OC(C)=O)[C@H]2[C@H](OC(=O)c2ccccc2)[C@]2(O)C[C@H](OC(=O)[C@H](O)[C@@H](NC(=O)OC(C)(C)C)c3ccccc3)C(C)=C1C2(C)C", "note": "[CBZ, cabazitaxel]", "values": [{"measurement": "mice still alive at day 90 after the injection", "setting": "[1]; IP (FIG. 4)", "result": "4 out of 6"}, {"measurement": "mice still alive at day 90 after the injection", "setting": "[1]; IV (FIG. 4)", "result": "3 out of 6"}, {"measurement": "tumor growth (growth index) compared to vehicle treatment", "setting": "[1]; intraperitoneal (FIG. 1)", "result": "significantly inhibited tumor growth"}, {"measurement": "mice cured (sacrificed on day 100 with no detectable tumor)", "setting": "[1]; intraperitoneal, day 100", "result": "3/6 and 3 out of 6"}, {"measurement": "mice still alive at day 60 after the injection", "setting": "[2]; IP (FIG. 6)", "result": "none of the mice"}, {"measurement": "mice alive at day 70 after the injection", "setting": "[2]; IV (FIG. 6)", "result": "none of the mice"}, {"measurement": "tumor growth (growth index) compared to vehicle treatment", "setting": "[2]; intraperitoneal (FIG. 2)", "result": "significantly reduced tumor growth"}, {"measurement": "mice cured (sacrificed on day 100 with no detectable tumor)", "setting": "[2]; intraperitoneal, day 100", "result": "No animals were cured"}]}]}
